Reference: patent publication US6737383B1, “Herbicidal oxadiazolidines” (priority 1999, dated 2004)

Legend:
bedstraw = experiment: Test B pre/postemergence bedstraw; type: in vivo, Galium aparine
Outline: (§1)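 Test chemicals in a non-phytotoxic solvent mixture with surfactant were sprayed preemergence onto planted seeds and postemergence onto plants 2 to 18 cm tall (1- to 4-leaf stage). After twelve to sixteen days in a greenhouse, injury was visually rated against untreated controls from 0 (no effect) to 10 (complete control).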

blackgrass = experiment: Test B pre/postemergence blackgrass; type: in vivo, Alopecurus myosuroides
Outline: as §1

surinam grass = experiment: Test B pre/postemergence surinam grass; type: in vivo, Brachiaria decumbens
Outline: as §1

cocklebur = experiment: Test B pre/postemergence cocklebur; type: in vivo, Xanthium strumarium
Outline: as §1

corn = experiment: Test B pre/postemergence corn; type: in vivo, Zea mays
Outline: as §1

giant foxtail = experiment: Test B pre/postemergence giant foxtail; type: in vivo, Setaria faberii
Outline: as §1

morningglory = experiment: Test B pre/postemergence morningglory; type: in vivo, Ipomoea hederacea
Outline: as §1

pigweed = experiment: Test B pre/postemergence pigweed; type: in vivo, Amaranthus retroflexus
Outline: as §1

rape = experiment: Test B pre/postemergence rape; type: in vivo, Brassica napus
Outline: as §1

sugar beet = experiment: Test B pre/postemergence sugar beet; type: in vivo, Beta vulgaris
Outline: as §1

velvetleaf = experiment: Test B pre/postemergence velvetleaf; type: in vivo, Abutilon theophrasti
Outline: as §1

purple nutsedge = experiment: Test B pre/postemergence purple nutsedge; type: in vivo, Cyperus rotundus
Outline: as §1

rice = experiment: Test B flood test rice; type: in vivo, Oryza sativa; conditions: Pre-emergence
Outline: (§2)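 Read-out is a visual response score from 0 (no effect) to 10 (complete control), assigned by comparison with untreated controls. Treatment was applied at the 2-leaf stage, and plants stayed in the greenhouse for twelve to sixteen days before scoring.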

duck salad = experiment: Test B flood test duck salad; type: in vivo, Heteranthera limosa; conditions: Pre-emergence
Outline: as §2

bamyardgrass = experiment: Test B flood test barnyardgrass; type: in vivo, Echinochloa crus-galli; conditions: Pre-emergence
Outline: as §2

[1] = Preemergence, Rate 62 g/ha, scale of 0 to 10 where 0 is no effect and 10 is complete control
[2] = Rate 62 g/ha, Postemergence, scale 0 to 10 (0 no effect, 10 complete control)
[3] = Rate 125 g/ha, Postemergence, scale of 0 to 10 where 0 is no effect and 10 is complete control
[4] = Rate 250 g/ha, Postemergence, scale of 0 to 10 where 0 is no effect and 10 is complete control
[5] = Preemergence, Rate 250 g/ha, scale of 0 to 10 where 0 is no effect and 10 is complete control
[6] = Preemergence, Rate 500 g/ha, scale of 0 to 10 where 0 is no effect and 10 is complete control
[7] = Rate 500 g/ha, Postemergence, scale 0 to 10, 0 no effect, 10 complete control
[8] = Rate 1000 g/ha, scale 0 to 10 (0 no effect, 10 complete control)
[9] = Rate 125 g/ha, flood test species, scale 0 to 10 where 0 is no effect and 10 is complete control
[10] = Rate 250 g/ha, flood-test species, scale 0 to 10, 0 is no effect, 10 is complete control
[11] = Rate 500 g/ha, flood test species, scale 0 to 10 (0 no effect, 10 complete control)

COC(Cn1c(=O)on(C(=O)N(c2ccc(F)cc2)C(C)C)c1=O)OC [Compound 317]
Bedstraw plant response rating (bedstraw; [1]): 0
Bedstraw plant response rating (bedstraw; [2]): 2
Bedstraw plant response rating (bedstraw; [3]): 6
Plant response rating, Bedstraw (bedstraw; [4]): 8
Blackgrass plant response rating (blackgrass; [1]): 3
Blackgrass plant response rating (0 to 10 scale) (blackgrass; Preemergence, Rate 125 g/ha): 8
Blackgrass plant response rating (blackgrass; [5]): 8
Blackgrass plant response rating (blackgrass; [6]): 10
Blackgrass plant response rating (blackgrass; [2]): 8
Blackgrass plant response rating (blackgrass; [3]): 8
Plant response rating, Blackgrass (blackgrass; [4]): 8
Blackgrass plant response rating (blackgrass; [7]): 9
B. signalgrass plant response rating (surinam grass; [1]): 5
B. signalgrass plant response rating (0 to 10 scale, 0 is no effect, 10 is complete control) (surinam grass; Preemergence, Rate 125 g/ha): 6
B. signalgrass plant response rating (surinam grass; [5]): 7
B. signalgrass plant response rating (surinam grass; [6]): 8
B. signalgrass plant response rating (surinam grass; [2]): 0
B. signalgrass plant response rating (surinam grass; [3]): 1
Plant response rating, B. signalgrass (surinam grass; [4]): 7
B. signalgrass plant response rating (surinam grass; [7]): 8
Cocklebur plant response rating (0 to 10 scale) (cocklebur; Preemergence, Rate 125 g/ha): 0
Cocklebur plant response rating (cocklebur; [6]): 0
Cocklebur plant response rating (cocklebur; [2]): 0
Cocklebur plant response rating (cocklebur; [3]): 0
Plant response rating, Cocklebur (cocklebur; [4]): 0
Cocklebur plant response rating (cocklebur; [7]): 1
Corn plant response rating (corn; [1]): 0
Corn plant response rating (0 to 10 scale) (corn; Preemergence, Rate 125 g/ha): 2
Corn plant response rating (corn; [6]): 5
Corn plant response rating (corn; [2]): 0
Corn plant response rating (corn; [3]): 0
Plant response rating, Corn (corn; [4]): 2
Corn plant response rating (corn; [7]): 3
Giant foxtail plant response rating (giant foxtail; [1]): 9
Giant foxtail plant response rating (0 to 10 scale) (giant foxtail; Preemergence, Rate 125 g/ha): 10
Giant foxtail plant response rating (giant foxtail; [5]): 10
Giant foxtail plant response rating (giant foxtail; [6]): 10
Giant foxtail plant response rating (giant foxtail; [2]): 5
Giant foxtail plant response rating (giant foxtail; [3]): 5
Plant response rating, Giant foxtail (giant foxtail; [4]): 8
Morningglory plant response rating (morningglory; [1]): 0
Morningglory plant response rating (0 to 10 scale) (morningglory; Preemergence, Rate 125 g/ha): 0
Morningglory plant response rating (morningglory; [5]): 0
Morningglory plant response rating (morningglory; [6]): 0
Morningglory plant response rating (morningglory; [2]): 1
Morningglory plant response rating (morningglory; [3]): 3
Plant response rating, Morningglory (morningglory; [4]): 3
Redroot pigweed plant response rating (pigweed; [1]): 2
Redroot pigweed plant response rating (0 to 10 scale) (pigweed; Preemergence, Rate 125 g/ha): 7
Redroot pigweed plant response rating (pigweed; [5]): 7
Redroot pigweed plant response rating (pigweed; [6]): 10
Redroot pigweed plant response rating (pigweed; [2]): 0
Redroot pigweed plant response rating (pigweed; [3]): 0
Plant response rating, Redroot pigweed (pigweed; [4]): 3
Rape plant response rating (rape; [1]): 0
Rape plant response rating (0 to 10 scale) (rape; Preemergence, Rate 125 g/ha): 2
Rape plant response rating (rape; [5]): 8
Rape plant response rating (rape; [6]): 10
Rape plant response rating (rape; [2]): 0
Rape plant response rating (rape; [3]): 0
Plant response rating, Rape (rape; [4]): 1
Sugarbeets plant response rating (sugar beet; [1]): 1
Sugarbeets plant response rating (0 to 10 scale) (sugar beet; Preemergence, Rate 125 g/ha): 4
Sugarbeets plant response rating (sugar beet; [5]): 7
Sugarbeets plant response rating (sugar beet; [6]): 8
Sugarbeets plant response rating (sugar beet; [2]): 0
Sugarbeets plant response rating (sugar beet; [3]): 0
Plant response rating, Sugarbeets (sugar beet; [4]): 1
Velvetleaf plant response rating (velvetleaf; [1]): 1
Velvetleaf plant response rating (0 to 10 scale) (velvetleaf; Preemergence, Rate 125 g/ha): 6
Velvetleaf plant response rating (velvetleaf; [5]): 6
Velvetleaf plant response rating (velvetleaf; [6]): 8
Velvetleaf plant response rating (velvetleaf; [2]): 0
Velvetleaf plant response rating (velvetleaf; [3]): 0
Plant response rating, Velvetleaf (velvetleaf; [4]): 0
Nutsedge plant response rating (purple nutsedge; [1]): 0
Nutsedge plant response rating (purple nutsedge; [5]): 0
Nutsedge plant response rating (purple nutsedge; [6]): 0
Nutsedge plant response rating (purple nutsedge; [2]): 0
Nutsedge plant response rating (purple nutsedge; [3]): 0
Plant response rating, Nutsedge (purple nutsedge; [4]): 0
Rice plant response rating (rice; [8]): 0
Rice plant response rating (rice; [9]): 0
Rice plant response rating (rice; [10]): 0
Rice plant response rating (rice; [11]): 0
Ducksalad plant response rating (duck salad; [8]): 0
Ducksalad plant response rating (duck salad; [9]): 0
Ducksalad plant response rating (duck salad; [10]): 0
Ducksalad plant response rating (duck salad; [11]): 0
Barnyardgrass plant response rating (bamyardgrass; [8]): 0
Barnyardgrass plant response rating (bamyardgrass; [9]): 0
Barnyardgrass plant response rating (bamyardgrass; [10]): 0
Barnyardgrass plant response rating (bamyardgrass; [11]): 0
